Activity calls are given as the source filed them. No cut-off for these calls is given here.
Tests used:
[1] = biological target: T1, 11-beta-hydroxysteroid dehydrogenase 1 (Homo sapiens, UniProt P28845); experiment: Inhibition of human recombinant 11beta-HSD1 expressed in HEK293 cells assessed as reduction of cortisone to cortisol conversion by scintillation counting; type: cell-based
[2] = biological target: T2, 11-beta-hydroxysteroid dehydrogenase type 2 (Homo sapiens) (UniProt P80365); experiment: Inhibition of human recombinant 11beta-HSD2 expressed in HEK293 cells assessed as reduction of […] conversion up to 20 uM by scintillation counting; type: cell-based
T2 sequence (whole entry): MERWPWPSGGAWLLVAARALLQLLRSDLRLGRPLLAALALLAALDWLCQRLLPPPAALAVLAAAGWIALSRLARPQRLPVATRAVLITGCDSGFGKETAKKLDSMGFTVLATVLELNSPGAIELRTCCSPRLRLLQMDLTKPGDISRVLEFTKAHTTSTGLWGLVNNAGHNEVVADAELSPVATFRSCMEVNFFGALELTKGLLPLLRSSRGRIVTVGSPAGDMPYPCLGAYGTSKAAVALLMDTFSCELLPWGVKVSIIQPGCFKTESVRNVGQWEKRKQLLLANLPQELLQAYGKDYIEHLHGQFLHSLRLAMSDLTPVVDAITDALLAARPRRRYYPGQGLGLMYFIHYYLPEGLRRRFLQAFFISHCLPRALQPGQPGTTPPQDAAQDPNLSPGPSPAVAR

[3] = biological target: T1, 11-beta-hydroxysteroid dehydrogenase 1; experiment: Inhibition of human recombinant 11beta-HSD1 expressed in HEK293 cells assessed as partial reduction of cortisone to cortisol conversion at 3 uM by scintillation counting; type: cell-based
Target sequence in this assay (P28845 whole entry, looked up): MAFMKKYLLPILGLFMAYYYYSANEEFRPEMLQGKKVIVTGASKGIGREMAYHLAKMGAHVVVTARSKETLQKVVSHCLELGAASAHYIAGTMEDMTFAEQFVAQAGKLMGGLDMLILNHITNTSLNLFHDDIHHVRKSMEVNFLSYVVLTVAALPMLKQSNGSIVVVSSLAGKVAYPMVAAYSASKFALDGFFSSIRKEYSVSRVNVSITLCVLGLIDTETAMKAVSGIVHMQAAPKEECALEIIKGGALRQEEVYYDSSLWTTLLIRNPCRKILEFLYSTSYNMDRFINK

[4] = biological target: T2, 11-beta-hydroxysteroid dehydrogenase type 2 (Homo sapiens); experiment: Inhibition of human recombinant 11beta-HSD2 expressed in HEK293 cells assessed as reduction of […] conversion at 20 uM by scintillation counting; type: cell-based
[5] = biological target: T1, 11-beta-hydroxysteroid dehydrogenase 1; experiment: Inhibition of human recombinant 11beta-HSD1 expressed in HEK293 cells assessed as reduction of cortisone to cortisol conversion at 20 uM by scintillation counting; type: cell-based
Target sequence in this assay (P28845 whole entry, looked up): as above

[6] = biological target: T1, 11-beta-hydroxysteroid dehydrogenase 1; experiment: Inhibition of human recombinant 11beta-HSD1 expressed in HEK293 cells assessed as partial reduction of cortisone to cortisol conversion at 1.5 uM by scintillation counting; type: cell-based
Target sequence in this assay (P28845 whole entry, looked up): as above

[7] = biological target: T1, 11-beta-hydroxysteroid dehydrogenase 1; conditions: HEK293, 4 uM
Target sequence in this assay (P28845 whole entry, looked up): as above
Description: Inhibition of human recombinant 11beta-HSD1 expressed in HEK293 cells assessed as partial reduction of cortisone to cortisol conversion at 4 uM by scintillation counting

| Structure (SMILES) | Activity [4] | IC50 ([1]; hek293) | also measured |
| --- | --- | --- | --- |
| C[C@H]1[C@H](C)CC[C@]2(C(=O)O)CC[C@]3(C)C(=CC[C@@H]4[C@@]5(C)C[C@@H](O)[C@H](O)C(C)(C)[C@@H]5CC[C@]43C)[C@H]12 [COROSOLIC ACID] |  |  | inhibition [1]: Dose-dependent effect; IC50 ([1]; read-out: IC50): 810 nM; inhibition [2]: inactive |
| C[C@H]1[C@H](C)CC[C@]2(C(=O)O)CC[C@]3(C)C(=CC[C@@H]4[C@@]5(C)C[C@@H](O)C(=O)C(C)(C)[C@@H]5CC[C@]43C)[C@H]12 | inactive |  | inhibition [3]: Active |
| C[C@H]1[C@H](C)CC[C@]2(C)CC[C@]3(C)C(=CC(=O)[C@@H]4[C@@]5(C)CC[C@@H](O)[C@](C)(C(=O)O)[C@@H]5CC[C@]43C)[C@H]12 |  |  | inhibition [5]: 52%; inhibition [4]: 68% |
| COC(=O)[C@]12CC[C@@H](C)[C@H](C)[C@H]1C1=CC[C@@H]3[C@@]4(C)C[C@@H](O)[C@@H](O)C(C)(C)[C@@H]4CC[C@@]3(C)[C@]1(C)CC2 | inactive |  | IC50 ([1]; read-out: IC50): 5200 nM |
| COC(=O)[C@]12CC[C@@H](C)[C@H](C)[C@H]1C1=CC[C@@H]3[C@@]4(C)C[C@@H](O)[C@H](O)C(C)(C)[C@@H]4CC[C@@]3(C)[C@]1(C)CC2 [COROSOLIC ACID METHYL ESTER] | inactive | Not Active |  |
| CC[C@H](CC[C@@H](C)[C@H]1CC[C@H]2[C@@H]3CC=C4C[C@@H](O)CC[C@]4(C)[C@H]3CC[C@]12C)C(C)C | inactive |  |  |
| C[C@H](CC(=O)C[C@@H](C)[C@H]1C[C@H](O)[C@@]2(C)C3=C(C(=O)C[C@]12C)[C@@]1(C)CCC(=O)C(C)(C)[C@@H]1C[C@@H]3O)C(=O)O |  |  | inhibition [5]: 46%; inhibition [4]: 76% |
| C[C@@H]1CC[C@]2(C(=O)O)CC[C@]3(C)C(=CC[C@@H]4[C@@]5(C)C[C@@H](O)[C@H](OC(=O)/C=C/c6ccc(O)cc6)C(C)(C)[C@@H]5CC[C@]43C)[C@@H]2[C@]1(C)O | inactive | Not Active |  |
| C[C@@H]1CC[C@]2(C(=O)O)CC[C@]3(C)C(=CC[C@@H]4[C@@]5(C)C[C@@H](O)[C@H](OC(=O)/C=C\c6ccc(O)cc6)C(C)(C)[C@@H]5CC[C@]43C)[C@@H]2[C@]1(C)O | inactive | Not Active |  |
| C[C@H]1[C@H](C)CC[C@]2(C(=O)O)CC[C@]3(C)C(=CC[C@@H]4[C@@]5(C)CC[C@H](O)C(C)(C)[C@@H]5CC[C@]43C)[C@H]12 | inactive |  | inhibition [6]: Active |
| C[C@H]1[C@H](C)CC[C@]2(CO)CC[C@]3(C)C(=CC[C@@H]4[C@@]5(C)CC[C@H](O)C(C)(C)[C@@H]5CC[C@]43C)[C@H]12 [UVAOL] | inactive | Not Active |  |
| C[C@H]1[C@H](C)CC[C@]2(C(=O)O)CC[C@]3(C)C(=CC(=O)[C@@H]4[C@@]5(C)CC[C@H](O)C(C)(C)[C@@H]5CC[C@]43C)[C@H]12 |  |  | IC50 ([1]; read-out: IC50): 2060 nM |
| C[C@@H]1CC[C@]2(C(=O)O)CC[C@]3(C)C(=CC[C@@H]4[C@@]5(C)C[C@@H](O)[C@H](O)C(C)(C)[C@@H]5CC[C@]43C)[C@@H]2[C@]1(C)O [TOMENTIC ACID] | inactive | Not Active |  |
| COC(=O)[C@]12CC[C@@H](C)[C@H](C)[C@H]1C1=CC[C@@H]3[C@@]4(C)CC[C@H](O)C(C)(C)[C@@H]4CC[C@@]3(C)[C@]1(C)CC2 | inactive |  |  |
| COC(=O)[C@]12CCC(C)(C)C[C@H]1C1=CC[C@@H]3[C@@]4(C)C[C@@H](O)[C@H](O)C(C)(C)[C@@H]4CC[C@@]3(C)[C@]1(C)CC2 [MASLINIC ACID METHYL ESTER] | inactive | Not Active |  |
| CC(=O)O[C@@H]1CC[C@@]2(C)[C@@H](CC[C@]3(C)[C@@H]2C(=O)C=C2[C@@H]4[C@@H](C)[C@H](C)CC[C@]4(C)CC[C@]23C)[C@@]1(C)C(=O)O |  |  | inhibition [5]: 63%; inhibition [4]: 52% |
| COC(=O)[C@]12CC[C@@H](C)[C@@](C)(O)[C@H]1C1=CC[C@@H]3[C@@]4(C)C[C@@H](O)[C@H](O)C(C)(C)[C@@H]4CC[C@@]3(C)[C@]1(C)CC2 [TORMENTIC ACID METHYL ESTER] | inactive |  | inhibition [7]: Active; IC50 ([1]; read-out: IC50): 9400 nM |
| CC(=O)O[C@H]1CC[C@]2(C)[C@H]3C(=O)C=C4[C@@H]5[C@@H](C)[C@H](C)CC[C@]5(C(=O)O)CC[C@@]4(C)[C@]3(C)CC[C@H]2C1(C)C [11-OXOURSOLIC ACID ACETATE] |  |  | IC50 ([1]; read-out: IC50): 1350 nM |
